Measured values reported in patent US7435805B2, “O-alkyl macrolide and azalide derivatives and regioselective process for their preparation” (GlaxpSmithkline Istrazivacki, priority 2003, dated 2008).
Values after ≈ are worked out from the molar mass of the structure shown.

Assays:
[1] = tested on: S. aureus B0329; assay: microtiter broth serial dilution MIC, S. aureus B0329; format: cell-based, Staphylococcus aureus; conditions: unit assumed
Excerpt: (§1) In particular, the compounds of the invention may be active against strains of Staphylococcus aureus, Streptococcus pneumoniae, Moraxella catarrhalis, Streptococcus pyogenes, or Haemophilus influenzae. […] (Table 1.)

[2] = tested on: S. pyogenes B0542; assay: microtiter broth serial dilution MIC, S. pyogenes B0542; format: cell-based, Streptococcus pyogenes; conditions: unit assumed
Excerpt: as §1

[3] = tested on: S. pyogenes B0543 iMLS; assay: microtiter broth serial dilution MIC, S. pyogenes B0543 iMLS; format: cell-based, Streptococcus pyogenes; conditions: S. pyogenes B0543 iMLS (inducible resistant strain); unit assumed
Excerpt: as §1

[4] = tested on: E. coli B0001; assay: microtiter broth serial dilution MIC, E. coli B0001; format: cell-based; conditions: unit assumed
Excerpt: as §1

[5] = tested on: S. pneumoniae B0326 M; assay: microtiter broth serial dilution MIC, S. pneumoniae B0326 M; format: cell-based, Streptococcus pneumoniae; conditions: unit assumed
Excerpt: as §1

[6] = tested on: M. catarrhalis B0324; assay: microtiter broth serial dilution MIC, M. catarrhalis B0324; format: cell-based, Moraxella catarrhalis; conditions: unit assumed
Excerpt: as §1

[7] = tested on: S. pyogenes B0545 M; assay: microtiter broth serial dilution MIC, S. pyogenes B0545 M; format: cell-based, Streptococcus pyogenes; conditions: S. pyogenes B0545 M (efflux resistant strain); unit assumed
Excerpt: as §1

[8] = tested on: S. pneumoniae B0541; assay: microtiter broth serial dilution MIC, S. pneumoniae B0541; format: cell-based, Streptococcus pneumoniae; conditions: unit assumed
Excerpt: as §1

[9] = tested on: H. influenzae B0529; assay: microtiter broth serial dilution MIC, H. influenzae B0529; format: cell-based, Haemophilus influenzae; conditions: unit assumed
Excerpt: as §1

## 8a-Aza-8a-homoerythromycin
[1]
  MIC: 2 µg/mL
[2]
  MIC: 0.25 µg/mL
[3]
  MIC: 8 µg/mL
[4]
  MIC: 16 µg/mL
[5]
  MIC: 64 µg/mL
[6]
  MIC: 2 µg/mL
[7]
  MIC: 32 µg/mL
[8]
  MIC: 0.125 µg/mL
[9]
  MIC: 1 µg/mL

## CC[C@H]1OC(=O)[C@H](C)[C@@H](O[C@H]2C[C@@](C)(OC)[C@@H](O)[C@H](C)O2)[C@H](C)[C@@H](O[C@@H]2O[C@H](C)C[C@H](N(C)C)[C@H]2O)[C@](C)(O)C[C@@H](C)CN[C@H](C)[C@@H](O)[C@]1(C)O [9-Deoxo-9a-aza-9a-homoerythromycin]
[1]
  MIC: 4 µg/mL (≈ 5.44 µM)
[2]
  MIC: 0.125 µg/mL (≈ 0.17 µM)
[3]
  MIC: 32 µg/mL (≈ 43.5 µM)
[4]
  MIC: 4 µg/mL (≈ 5.44 µM)
[5]
  MIC: 16 µg/mL (≈ 21.8 µM)
[6]
  MIC: 1 µg/mL (≈ 1.36 µM)
[7]
  MIC: 16 µg/mL (≈ 21.8 µM)
[8]
  MIC: 0.25 µg/mL (≈ 0.34 µM)
[9]
  MIC: 0.5 µg/mL (≈ 0.68 µM)

## CC[C@H]1OC(=O)[C@H](C)[C@@H](O[C@H]2C[C@@](C)(OC)[C@@H](O)[C@H](C)O2)[C@H](C)[C@@H](O[C@@H]2O[C@H](C)C[C@H](N(C)C)[C@H]2O)[C@](C)(O)C[C@@H](C)CN[C@H](C)[C@@H](OC)[C@]1(C)O [Ex. 3, 11-O-METHYL-9-DEOZO-9A-AZA-9A-HOMOERYTHROMYCIN]
[1]
  MIC: 1 µg/mL (≈ 1.34 µM)
[2]
  MIC: 0.125 µg/mL (≈ 0.167 µM)
[3]
  MIC: 16 µg/mL (≈ 21.4 µM)
[4]
  MIC: 2 µg/mL (≈ 2.67 µM)
[5]
  MIC: 8 µg/mL (≈ 10.7 µM)
[6]
  MIC: 0.125 µg/mL (≈ 0.167 µM)
[7]
  MIC: 4 µg/mL (≈ 5.34 µM)
[8]
  MIC: 0.125 µg/mL (≈ 0.167 µM)
[9]
  MIC: 0.5 µg/mL (≈ 0.668 µM)

## CC[C@H]1OC(=O)[C@H](C)[C@@H](O[C@H]2C[C@@](C)(OC)[C@@H](O)[C@H](C)O2)[C@H](C)[C@@H](O[C@@H]2O[C@H](C)C[C@H](N(C)C)[C@H]2O)[C@](C)(O)C[C@@H](C)NC(=O)[C@H](C)[C@@H](OC)[C@]1(C)O [Ex. 5, 11-O-METHYL-8A-AZA-8A-HOMOERYTHROMYCIN]
[1]
  MIC: 0.5 µg/mL (≈ 0.655 µM)
[2]
  MIC: 0.125 µg/mL (≈ 0.164 µM)
[3]
  MIC: 4 µg/mL (≈ 5.24 µM)
[4]
  MIC: 16 µg/mL (≈ 21 µM)
[5]
  MIC: 32 µg/mL (≈ 41.9 µM)
[6]
  MIC: 0.125 µg/mL (≈ 0.164 µM)
[7]
  MIC: 16 µg/mL (≈ 21 µM)
[8]
  MIC: 0.125 µg/mL (≈ 0.164 µM)
[9]
  MIC: 1 µg/mL (≈ 1.31 µM)
